Laboratory results reported in patent US5229267A, “Assay for evaluating inhibition of PMN elastase by N-substituted azetidinones” (Merck & Co., Inc., priority 1991, dated 1993).

Test system: antibody R674
Assay: RIA: displacement of tritium labeled Compound A' or B' from polyclonal rabbit antiserum R674
Assay type: binding, New Zealand white rabbits
Details: up to 10 μM (the highest concentration tested)
Protocol: Antibodies for the reactivation product of formula II were produced by the methods described in Basic methodology of Vituakaitis, Meth. Enzymol. 73: 46-52 (1981). Specifically, New Zealand white rabbits were immunized with Compound C (the para succinyl aminomethyl derivative of compound B'), coupled to thyroglobulin. See Scheme 3. The initial immunizations employed 1 mg of the immunogen conjugate per ml saline homogenized with 1 ml of Freund's complete adjuvant. Rabbits received a total of 0.4 ml divided over 2 intramuscular sites. Animals were boosted 30 days later receiving 0.5 mg immunogen per ml saline homogenized with 1 ml Freund's Incomplete adjuvant. […]
Antibody titer, antibody sensitivity, antibody specificity and the presence of and concentration of reactivation product in body fluids were determined by a radioimmunoassay (RIA). […]
Non-antibody-bound radioactive isotope was removed from the reaction mixture by it's absorption onto dextran-coated activated charcoal. […] The supernatant fluid was decanted into 9 ml of AQUASOL-2 scintillation fluid and radioactivity counted in a beta-counter. […] Percent specific binding was determined by subtracting the value for non-specific binding from the value of total antiserum binding and then dividing by the total radioactivity added.
Sensitivity of the antisera R674 (2nd bleed) was determined in the above RIA. […]

Structure (SMILES)	effect in RIA (displacement)
NC(N)=O [Urea, urea]	without affect
N=C(N)NCCC[C@H](N)C(=O)O [arginine]	without affect
